Source: US20200068887A1, “TREATMENT FOR REMOVING ECTOPARASITES FROM FISH” (priority 2016, published 2020)
Where “and” joins values, the source holds several entries; their conditions need not be identical. Identical values can stand only once.

How the values were obtained:
sea lice = assay: Comparison on isolated sea lice (in vitro bath exposure); settings: registered approx. 20 h after end of exposure
Experimental: Both pre-adult and adult stages (mobile stages) of both sexes were used, and they were equally distributed among groups. The sea lice were exposed to imidacloprid for 60 minutes, azamethiphos for 60 minutes and deltamethrin for 30 minutes in one litre baths at a range of concentrations (Tables 6, 7 and 8). The sea lice were transferred to clean aerated seawater after treatment. The temperature of the seawater during the experiment was 12° C., but during exposure the temperature raised to approx. 14° C. in regimes exposed for 60 min. (imidacloprid and azamethiphos) and to 13° C. for the regime exposed in 30 minutes (deltamethrin).
The numbers of live and immobilised (including killed) lice in each regime were registered approximately 20 h after end of exposure. Each louse was individually investigated.

salmon louse = assay: Bath treatment of lice-infected Atlantic salmon, percent lice removed; assay type: in vivo; settings: duplicate
Experimental: To determine the concentration- and time-dependence of imidacloprid treatment in vivo, Atlantic salmon (average of 320.9 g) were challenged with imidacloprid in seawater (32.5%0 salinity) at 12° C. The water level in the tank was lowered and aeration was employed during administration of the active. The salmon louse copepodid culture was counted and adjusted to obtain a target level of around 40 copepodids per fish in the challenge tank at each challenge time point.
Salmon lice on the fish were counted using standard methods. Only lice on the fish's outer surface, not including gills and oral/buccal cavities, were investigated.
Numbers of dissociated lice in tank water or attached to the tank walls were recorded. Lice in the tank water were collected and assessed for ability to attach by suction to a smooth plastic surface immediately after treatment and again after 30-60 minutes (to assess possible revival). Live and viable lice were also collected from the mock-treated control groups for reference and held in revival chambers for the same period of time to assess the system.
The test solutions of the active were prepared (added and homogenised with seawater) and administered to a treatment volume of 40 litres.
Three sea lice-infected fish from the holding tank were randomly gathered and carefully steered into a barrel forming an inner compartment (diameter=34.5-40 cm; height=54 cm) that was submerged in the tank and in which the base has been replaced with a plastic mesh screen with 9 mm^2 square holes.
The fish were transferred to the inner compartment within 3 minutes of each test start. The inner compartment was suspended/submerged in the holding tank pending treatment. Treatments and mock treatments were implemented by draining the inner compartment with fish and transferring it to a barrel containing the test solution. Treatments/mock treatments were performed in static water with aeration/oxygenation. Aeration was adjusted to set the oxygen saturation to 70-100%.
To terminate the treatment, the inner compartment with treated fish was lifted to the surface and drained, then fish were transferred directly and without water to a second basin with a lethal overdose of anaesthetic and left until dead. All lice remaining on these fish and lice that fell off in the anaesthetic bath were recorded.
Exposure times with imidacloprid ranged from 3 to 60 minutes, and doses ranged from 20 ppm to 200 ppm.
Negative control groups at 3- and 60 minutes were duplicated. Superscript numbers denote the total number of lice on the 3 fish in each test.
By way of comparison, fish infected with sea lice from the same sources were treated with azamethiphos at 0.1 mg/l and deltamethrin at 0.2 μ/l for 30 minutes, per the recommended dosage regimes. Treatments were carried out under similar conditions as those treated with imidacloprid. A mock-treatment control was also administered. Each treatment condition was administered in duplicate.
Superscript numbers denote the total number of lice on the 3 fish in each test.

[1] = azamethiphos 5 ppm, 60 min exposure
[2] = azamethiphos 10 ppm, 60 min exposure
[3] = azamethiphos 15 ppm, 60 min exposure
[4] = azamethiphos 20 ppm, 60 min exposure
[5] = deltamethrin 5 ppm, 30 min exposure
[6] = deltamethrin 15 ppm, 30 min exposure
[7] = deltamethrin 20 ppm, 30 min exposure
[8] = deltamethrin 30 ppm, 30 min exposure

COP(=O)(OC)SCn1c(=O)oc2cc(Cl)cnc21 [azamethiphos]
% effect (sea lice; [1]): 0% | Immobilised (sea lice; [1]): 0 | Live (sea lice; [1]): 10 | % effect (sea lice; [2]): 10% | Immobilised (sea lice; [2]): 1 | Live (sea lice; [2]): 9 | % effect (sea lice; [3]): 0% | Immobilised (sea lice; [3]): 0 | Live (sea lice; [3]): 10 | % effect (sea lice; [4]): 10% and 20% | Immobilised (sea lice; [4]): 1 and 2 | Live (sea lice; [4]): 9 and 8 | Live (sea lice; azamethiphos 30 ppm, 60 min exposure): 9 and 6 | % Removal (salmon louse; azamethiphos at 0.1 mg/l for 30 minutes, 52 and 33 lice on 3 fish): 3.0^33% and 3.8^52%

CC1(C)[C@H](C(=O)O[C@H](C#N)c2cccc(Oc3ccccc3)c2)[C@@H]1C=C(Br)Br [deltamethrin]
% effect (sea lice; [5]): 0% | Immobilised (sea lice; [5]): 0 | Live (sea lice; [5]): 10 | Live (sea lice; deltamethrin 10 ppm, 30 min exposure): 9 and 10 | % effect (sea lice; [6]): 20% and 10% | Immobilised (sea lice; [6]): 2 and 1 | Live (sea lice; [6]): 8 and 9 | % effect (sea lice; [7]): 20% and 10% | Immobilised (sea lice; [7]): 2 and 1 | Live (sea lice; [7]): 8 and 9 | Immobilised (sea lice; [8]): 1 and 2 | Live (sea lice; [8]): 10 and 8 | % Removal (salmon louse; deltamethrin at 0.2 μ/l for 30 minutes, 37 lice on 3 fish each): 0^37%
